According to ChEMBL document CHEMBL5131471, “Design, synthesis and mechanism studies of novel dual PARP1/BRD4 inhibitors against pancreatic cancer” (Eur J Med Chem, 2022):
pIC50: −log10 of the molar value. The source made the active and inactive calls. No cut-off for these calls is given here.

Experiments:
SW1990 [1] = assay: Effect on FOXM1 gene expression in human SW1990 cells at 4 uM by Q-PCR analysis; type: functional, cell-based
SW1990 [2] = assay: Antiproliferative activity against human SW1990 cells assessed as inhibition of cell growth after 3 days by MTT assay; type: functional, cell-based; conditions: SW1990, 72 h
CAPAN-1 [3] = assay: Antiproliferative activity against human CAPAN-1 cells assessed as inhibition of cell growth measured after 7 days by MTT assay; type: functional, cell-based; conditions: CAPAN-1, 168 h
SW1990 [4] = assay: Effect on HEXIM1 gene expression in human SW1990 cells at 4 uM by Q-PCR analysis; type: functional, cell-based
SW1990 [5] = assay: Antiproliferative activity against human SW1990 cells assessed as inhibition of cell growth measured after 5 days by MTT assay; type: functional, cell-based; conditions: SW1990, 120 h
CFPAC-1 [6] = assay: Antiproliferative activity against human CFPAC-1 cells assessed as inhibition of cell growth measured after 7 days by MTT assay; type: functional, cell-based; conditions: CFPAC-1, 168 h
CFPAC-1 [7] = assay: Antiproliferative activity against human CFPAC-1 cells assessed as inhibition of cell growth measured after 4 days by MTT assay; type: functional, cell-based; conditions: CFPAC-1, 96 h
THP-1 = assay: Antiproliferative activity against human THP-1 cells expressing BRD4 assessed as inhibition of cell growth measured after 3 days by MTT assay; type: functional, cell-based; conditions: THP-1, 72 h
CAPAN-1 [8] = assay: Antiproliferative activity against human CAPAN-1 cells assessed as inhibition of cell growth measured after 3 days by MTT assay; type: functional, cell-based; conditions: CAPAN-1, 72 h
CAPAN-1 [9] = assay: Antiproliferative activity against human CAPAN-1 cells assessed as inhibition of cell growth measured after 5 days by MTT assay; type: functional, cell-based; conditions: CAPAN-1, 120 h
MDA-MB-468 = assay: Antiproliferative activity against BRCA-proficient human MDA-MB-468 cells assessed as inhibition of cell growth measured after 7 days by MTT assay; type: functional, cell-based; conditions: MDA-MB-468, 168 h
HCT-116 = assay: Antiproliferative activity against BRCA2-mutated human HCT-116 cells assessed as inhibition of cell growth measured after 7 days by MTT assay; type: functional, cell-based; conditions: HCT-116, 168 h
CFPAC-1 [10] = assay: Antiproliferative activity against human CFPAC-1 cells assessed as inhibition of cell growth measured after 3 days by MTT assay; type: functional, cell-based; conditions: CFPAC-1, 72 h
SW1990 [11] = assay: Antiproliferative activity against human SW1990 cells assessed as inhibition of cell growth measured after 7 days by MTT assay; type: functional, cell-based; conditions: SW1990, 168 h
[12] = Toxicity in nude mouse xenografted with human SW1990 cells assessed as kidney damage at 30 mg/kg, ip administered for 28 days by H and E staining based fluorescence microscopic analysis; type: organism-based; conditions: in vivo, 672 h, time 28 day
CFPAC-1 [13] = assay: Antiproliferative activity against human CFPAC-1 cells assessed as inhibition of cell growth measured after 5 days by MTT assay; type: functional, cell-based; conditions: CFPAC-1, 120 h
SW1990 [14] = assay: Effect on ALDH1A1 gene expression in human SW1990 cells at 1 to 2 uM by Q-PCR analysis; type: functional, cell-based; conditions: dose 1-2 µM
SW1990 [15] = assay: Inhibition of CCND1 protein expression in human SW1990 cells at 1 to 2 uM measured after 4 days by Western blot analysis; type: functional, cell-based; conditions: dose 1-2 µM, time 4.0 day
SW1990 [16] = assay: Induction of cell cycle arrest in human SW1990 cells assessed as accumulation of cells at S phase at 1 uM incubated for 4 days by propidium iodide staining based flow cytometry (reference value: 29.32%); type: functional; conditions: time 4 day
CAPAN-1 [17] = assay: Antiproliferative activity against human CAPAN-1 cells assessed as inhibition of cell growth measured after 4 days by MTT assay; type: functional, cell-based; conditions: CAPAN-1, 96 h
Mus musculus [18] = assay: Inhibition of CDC25B expression in nude mouse xenografted with human SW1990 cells at 30 mg/kg, ip measured after 4 days by Western blot analysis; type: functional, organism-based; conditions: time 4.0 day
MDA-MB-231 = assay: Antiproliferative activity against BRCA-proficient human MDA-MB-231 cells assessed as inhibition of cell growth measured after 7 days by MTT assay; type: functional, cell-based; conditions: MDA-MB-231, 168 h
[19] = Toxicity in nude mouse xenografted with human SW1990 cells assessed as lung damage at 30 mg/kg, ip administered for 28 days by H and E staining based fluorescence microscopic analysis; type: organism-based; conditions: in vivo, 672 h, time 28 day
SW1990 [20] = assay: Antitumor activity against human SW1990 cells xenografted in nude mouse assessed as reduction in tumor weight at 30 mg/kg, ip administered for 28 days and measured every 3 days by vernier caliper method; type: functional, organism-based; conditions: time 28.0 day
SW1990 [21] = assay: Induction of cell cycle arrest in human SW1990 cells assessed as accumulation of cells at G2/M phase at 1 uM incubated for 4 days by propidium iodide staining based flow cytometry (reference value: 5.89%); type: functional; conditions: time 4 day
SW1990 [22] = assay: Induction of cell cycle arrest in human SW1990 cells assessed as accumulation of cells at S phase at 2 uM incubated for 4 days by propidium iodide staining based flow cytometry (reference value: 29.32%); type: functional; conditions: time 4 day
SW1990 [23] = assay: Effect on CDK1 to 2 gene expression in human SW1990 cells at 1 to 2 uM by Q-PCR analysis; type: functional, cell-based; conditions: dose 1-2 µM
SW1990 [24] = assay: Effect on CCND1 gene expression in human SW1990 cells at 1 to 2 uM by Q-PCR analysis; type: functional, cell-based; conditions: dose 1-2 µM
SW1990 [25] = assay: Inhibition of colony formation in human SW1990 cells at 1 uM after 14 days by crystal violet staining based microscopic analysis; type: functional, cell-based; conditions: time 14.0 day
SW1990 [26] = assay: Effect on CDC25B gene expression in human SW1990 cells at 1 to 2 uM by Q-PCR analysis; type: functional, cell-based; conditions: dose 1-2 µM
Mus musculus [27] = assay: Inhibition of BRD4 expression in nude mouse xenografted with human SW1900 cells at 30 mg/kg, ip administered for 28 days by Western blot analysis; type: functional, organism-based; conditions: time 28.0 day
[28] = Toxicity in nude mouse xenografted with human SW1990 cells assessed as heart damage at 30 mg/kg, ip administered for 28 days by H and E staining based fluorescence microscopic analysis; type: organism-based; conditions: in vivo, 672 h, time 28 day
SW1990 [29] = assay: Downregulation of Ki67 expression in human SW1990 cells at 45 mg/kg, ip measured after 28 days by immuno histochemical staining based fluorescence microscopic analysis; type: functional, organism-based; conditions: time 28.0 day
SW1990 [30] = assay: Induction of BRCA2 accumulation in nucleus of human SW1990 cells at 6 uM measured after 4 days by Western blot analysis; type: functional, cell-based; conditions: time 4.0 day
SW1990 [31] = assay: Effect on E2F2 gene expression in human SW1990 cells at 6 uM by Q-PCR analysis; type: functional, cell-based
SW1990 [32] = assay: Induction of DNA damage in human SW1990 cells assessed as increase in tail DNA at 6 uM incubated for 4 days by comet assay; type: functional, cell-based; conditions: time 4.0 day
SW1990 [33] = assay: Upregulation of ALDH1A1 expression in human SW1990 cells at 6 uM measured after 4 days by Western blot analysis; type: functional, cell-based; conditions: time 4.0 day
SW1990 [34] = assay: Upregulation of CDK1 expression in human SW1990 cells at 6 uM measured after 4 days by Western blot analysis; type: functional, cell-based; conditions: time 4.0 day
SW1990 [35] = assay: Effect on Rad51 gene expression in human SW1990 cells at 6 uM by Q-PCR analysis; type: functional, cell-based
SW1990 [36] = assay: Effect on CDK6 gene expression in human SW1990 cells at 6 uM by Q-PCR analysis; type: functional, cell-based

With `Cc1sc2c(c1C)C(c1ccc(Cl)cc1)=N[C@@H](CC(=O)OC(C)(C)C)c1nnc(C)n1-2` the Activity (SW1990 [1]) was “Active”, the pIC50 (SW1990 [2]) was 4.50 and the pIC50 (CAPAN-1 [3]) was 6.35. For the same compound, the Activity (SW1990 [4]) was “Active”, the pIC50 (SW1990 [5]) was 5.95 and the pIC50 (CFPAC-1 [6]) was 6.46. For the same compound, the pIC50 (CFPAC-1 [7]) was 5.73, the pIC50 (THP-1) was 6.48 and the pIC50 (CAPAN-1 [8]) was 4.62. It also gave a pIC50 (CAPAN-1 [9]; read-out: IC50) of 6.24, a pIC50 (MDA-MB-468) of 6.27 and a pIC50 (HCT-116) of 5.69. The pIC50 (CFPAC-1 [10]) was 4.86 and the pIC50 (SW1990 [11]) was 6.20.
In the case of `Cc1noc(C)c1-c1ccc2c(c1)C(c1ccccc1)N(Cc1nc3c(C(N)=O)cccc3[nH]1)C(=O)N2C` (centres undefined), the pIC50 (SW1990 [2]) was 4.93, the Activity [12] was “Non-Toxic” and the pIC50 (CAPAN-1 [3]) was 6.77. For the same compound, the pIC50 (CFPAC-1 [13]) was 6.01, the Activity (SW1990 [14]) was “Active” and the inhibition (SW1990 [15]) was “Active”. The Activity (SW1990 [16]) was 14.98%, the pIC50 (SW1990 [5]) was 6.01 and the pIC50 (CFPAC-1 [6]) was 6.68. The pIC50 (CAPAN-1 [17]) was 5.77, the inhibition (Mus musculus [18]) was “Active” and the pIC50 (CFPAC-1 [7]) was 5.88. The pIC50 (MDA-MB-231) was 6.85, the pIC50 (THP-1) was 6.37 and the Activity [19] was “Non-Toxic”. For the same compound, the pIC50 (CAPAN-1 [8]) was 5.14, the Activity (SW1990 [20]) was “Active” and the pIC50 (CAPAN-1 [9]; read-out: IC50) was 6.39. It also gave a pIC50 (MDA-MB-468) of 7.05, an Activity (SW1990 [21]) of 10.13% and an Activity (SW1990 [22]) of 9%. The Activity (SW1990 [23]) was “Active”, the Activity (SW1990 [24]) was “Active” and the pIC50 (HCT-116) was 5.84. The pIC50 (CFPAC-1 [10]) was 5.61, the inhibition (SW1990 [25]) was “Active” and the Activity (SW1990 [26]) was “Active”. The inhibition (Mus musculus [27]) was “Active”, the Activity [28] was “Non-Toxic” and the pIC50 (SW1990 [11]) was 6.25.
For `O=C(c1cc(Cc2n[nH]c(=O)c3ccccc23)ccc1F)N1CCN(C(=O)C2CC2)CC1` [OLAPARIB], the Activity (SW1990 [29]) was “Active”, the Activity (SW1990 [30]) was “Active” and the pIC50 (SW1990 [2]) was 4.71. For the same compound, the pIC50 (CAPAN-1 [3]) was 5.58, the pIC50 (CFPAC-1 [13]) was 5.01 and the pIC50 (SW1990 [5]) was 5.31. For the same compound, the pIC50 (CFPAC-1 [6]) was 5.13, the Activity (SW1990 [31]) was “Active” and the Activity (SW1990 [32]) was “Active”. It also gave a pIC50 (THP-1) of 4.49, a pIC50 (CAPAN-1 [8]) of 4.60 and a pIC50 (CAPAN-1 [9]) of 5.27. For the same compound, the pIC50 (MDA-MB-468) was 5.74, the Activity (SW1990 [33]) was “Active” and the Activity (SW1990 [34]) was “Active”. For the same compound, the pIC50 (HCT-116) was 5.14, the pIC50 (CFPAC-1 [10]) was 4.54 and the Activity (SW1990 [35]) was “Active”. For the same compound, the pIC50 (SW1990 [11]) was 5.44 and the Activity (SW1990 [36]) was “Active”.
